The target in the assay is T1, human TREM2 (Homo sapiens, UniProt Q9NZC2).
T1 construct: expressed in transfected cells; host or cells: HEK293T (HEK293T-hTREM2 cells)
Put plainly: TREM2 agonist potency by cellular phosphorylation of Spleen Tyrosine Kinase (Syk), AlphaLisa, HEK293T-hTREM2 cells. Format: cell-based. How it is done: Measurement of TREM2 agonist potency was done using a HEK cell line expressing human TREM2 and DAP12 (HEK293T-hTREM2 cells). Binding of small molecules to, and activation of, TREM2 increases the phosphorylation of Syk. The resultant levels of Syk phosphorylation are measured using a commercial AlphaLisa reagent kit. To perform the assay, HEK-hTREM2 cells were plated at 14,000 cells per well in a 384 well plate, in 25 μL of complete growth media and incubated at 37° C., 5% CO2 for 20-24 hours.
Prior to the assay, test compounds were diluted in the 384 well plates in assay buffer and allowed to equilibrate for 30 minutes. Growth media was removed from cell plates by inversion on blotting paper, and 25 μL of test articles in assay buffer was added to cells. Cells were incubated for 45 minutes at room temperature. After 45 minutes, assay buffer was removed and 10 μL of lysis buffer was added. Plates were shaken for 20 minutes at 350 RPM at room temperature. After complete lysis, AlphaLisa reagents were added to the lysate, and fluorescence intensity was measured using a Perkin Elmer Envision plate reader. Intensities were used to generate a standard curve, and % activation was calculated. Curve fitting was performed using Prism v9 software, log (agonist) vs response-variable slope (four parameters), and EC50s were calculated from the curve fit.
The results presented in Table B have been generated with the in vitro assay described above. This assay may be used to test any of the compounds described herein to assess and characterize a compound's ability to act as an agonist of TREM2.
On the technique in general: Bead proximity is the source of the signal in Alpha formats.

Where [1] appears, read: hTREM2 EC50 Data (HEK293 Cells), Syk phosphorylation, AlphaLisa, read-out: hTREM2 EC50.

The structures appear in SMILES notation. pEC50: −log10 of the molar value. Where two headings read alike, the source gives them in different places. Where only a bound is given, the exact number is not on record here.

The term pEC50 denotes the negative decadic logarithm of the EC50, by convention in mol/L.

T1 sequence (Q9NZC2 19-230): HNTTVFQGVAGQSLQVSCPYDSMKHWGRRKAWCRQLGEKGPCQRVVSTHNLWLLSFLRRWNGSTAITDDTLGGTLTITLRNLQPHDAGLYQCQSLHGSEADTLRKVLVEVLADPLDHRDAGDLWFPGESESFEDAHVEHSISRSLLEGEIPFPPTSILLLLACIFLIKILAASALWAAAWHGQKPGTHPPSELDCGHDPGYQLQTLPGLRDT
T1 sequence (O43914 22-113 partner): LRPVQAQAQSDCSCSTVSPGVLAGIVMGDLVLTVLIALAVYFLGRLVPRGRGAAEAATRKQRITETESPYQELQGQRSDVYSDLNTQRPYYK

Take `Cc1nc2nc([C@@H]3CCO[C@H](c4ccc(=O)n(C)c4)C3)nc(C34CC(C(F)(F)F)(C3)C4)c2nc1C` [Example 26, 5-[(2S,4R)-4-[6,7-dimethyl-4-[3-(trifluoromethyl)-1-bicyclo[1.1.1]-pentanyl]pteridin-2-yl]tetrahydropyran-2-yl]-1-methyl-pyridin-2-one]: the pEC50 under setting [1] is greater than 7.00.
For `COc1nc2c(C34CC(C(F)(F)F)(C3)C4)nc([C@H]3CCO[C@@H](c4ccc(=O)n(C)c4)C3)nc2nc1C` [Example 140, 5-[(2R,4S)-4-[6-methoxy-7-methyl-4-[3-(trifluoromethyl)-1-bicyclo[1.1.1]pentanyl]pteridin-2-yl]tetrahydropyran-2-yl]-1-methyl-pyridin-2-one], the pEC50 under setting [1] was greater than 7.00.
The same measure, in the same setting: the value for `Cc1cc(-n2cc([C@H]3CC(c4nc(C56CC(C(F)(F)F)(C5)C6)c5nc(C)c(C)nc5n4)CCO3)ccc2=O)cs1` (stereo partly drawn) [Example 104, 5-((2R)-4-(6,7-dimethyl-4-(3-(trifluoromethyl)bicyclo-[1.1.1]pentan-1-yl)pteridin-2-yl)tetrahydro-2H-pyran-2-yl)-1-(5-methylthiophen-3-yl)pyridin-2 (1H)-one] was greater than 7.00.
As for `Cc1nc2nc([C@H]3CCO[C@@H](c4ccc(=O)n(C)c4)C3)nc(C34CC(CC(F)(F)F)(C3)C4)c2nc1C` [Example 54, 5-[(2R,4S)-4-[6,7-dimethyl-4-[3-(2,2,2-trifluoroethyl)-1-bicyclo[1.1.1]pentanyl]pteridin-2-yl]tetrahydro-2H-pyran-2-yl]-1-methyl-pyridin-2(1H)-one], under setting [1], the pEC50 is greater than 7.00.
Still for that read-out and setting: as for `Cc1nc2nc([C@@H]3CCO[C@H](c4ccc(=O)n(C)c4)C3)nc(-c3ccc(C(F)(F)F)cc3F)c2nc1C(F)F` [Example 127, 5-[(2S,4R)-4-[6-(difluoromethyl)-4-[2-fluoro-4-(trifluoromethyl)phenyl]-7-methyl-pteridin-2-yl]tetrahydropyran-2-yl]-1-methyl-pyridin-2-one], the figure is greater than 7.00.
The same measure, in the same setting: as for `Cc1nc2nc(N3C[C@@H](C)O[C@@H](c4ccc(=O)n(C)c4)C3)nc(-c3cnc(C(F)(F)F)s3)c2nc1C` [Example 23, 5-[(2S,6R)-4-[6,7-dimethyl-4-[2-(trifluoromethyl)thiazol-5-yl]pteridin-2-yl]-6-methyl-morpholin-2-yl]-1-methyl-pyridin-2-one], the figure is greater than 7.00; as for `COc1nc2c(C3CCCCC3)nc([C@H]3CCO[C@@H](c4ccc(=O)n(C)c4)C3)nc2nc1C` [Example 136, 5-[(2R)-4-(4-cyclohexyl-6-methoxy-7-methyl-pteridin-2-yl)tetrahydropyran-2-yl]-1-methyl-pyridin-2-one], greater than 7.00.
Still for that read-out and setting: the value for `COc1nc2c(C34CC(C(F)(F)F)(C3)C4)nc([C@H]3CCO[C@@H](c4ccc(=O)n(C5CC5)c4)C3)nc2nc1C` [Example 142, 1-cyclopropyl-5-[(2R,4S)-4-[6-methoxy-7-methyl-4-[3-(trifluoromethyl)-1-bicyclo-[1.1.1]pentanyl]pteridin-2-yl]tetrahydropyran-2-yl]pyridin-2-one] was greater than 7.00.
On to `Cc1nc2nc(N3C[C@@H](C)O[C@@H](c4ccc(=O)n(C)c4)C3)nc(C34CC(C(F)(F)F)(C3)C4)c2nc1C` [Example 62, 5-[(2S,6R)-4-[6,7-dimethyl-4-[3-(trifluoro-methyl)-1-bicyclo[1.1.1]pentanyl]pteridin-2-yl]-6-methyl-morpholin-2-yl]-1-methyl-pyridin-2-one], for which the pEC50 under setting [1] is greater than 7.00.
`Cc1nc2nc([C@H]3CCO[C@@H](c4ccc(=O)n(-c5cscn5)c4)C3)nc(C34CC(C(F)(F)F)(C3)C4)c2nc1C` [Example 110, 5-((2R,4S)-4-(6,7-dimethyl-4-(3-(trifluoromethyl)bicyclo[1.1.1]pentan-1-yl)pteridin-2-yl)tetrahydro-2H-pyran-2-yl)-1-(thiazol-4-yl)pyridin-2(1H)-one]: under setting [1], the pEC50 is greater than 7.00.
Still for that read-out and setting: the value for `Cc1nc2nc([C@@H]3CCO[C@H](c4ccc(=O)n(C)c4)C3)nc(-c3cc(F)c(C(F)(F)F)cc3F)c2nc1C` [Example 349] was less than 6.30; that for `Cc1nc2nc([C@H]3CCO[C@@H](c4ccc(=O)n(C)c4)C3)nc(C34CC(C(F)F)(C3)C4)c2nc1C` [Example 31, 5-[(2R,4S)-4-[4-[3-(difluoromethyl)-1-bicyclo[1.1.1]-pentanyl]-6,7-dimethyl-pteridin-2-yl]-tetrahydropyran-2-yl]-1-methyl-pyridin-2-one] was greater than 7.00.
In turn, `Cc1nc2nc(N3C[C@@H](C)O[C@@H](c4ccc(=O)n(C)c4)C3)nc(C34CC(C(F)(F)F)(C3)C4)c2nc1C(F)F` [Example 180, 5-[(2S,6R)-4-[6-(difluoromethyl)-7-methyl-4-[3-(trifluoromethyl)-1-bicyclo[1.1.1]pentanyl]pteridin-2-yl]-6-methyl-morpholin-2-yl]-1-methyl-pyridin-2-one] gave a pEC50 greater than 7.00.
As to `Cc1nc2nc([C@H]3CCO[C@@H](c4cnc(=O)n(C)c4)C3)nc(C34CC(C(F)(F)F)(C3)C4)c2nc1C` [Example 161], the pEC50 under setting [1] was greater than 7.00.
As to `Cc1nc2nc([C@H]3CCO[C@@H](c4ccc(=O)n(C)c4)C3)nc(-c3ccc(C(F)(F)F)cc3F)c2nc1C` [Example 4, 1-methyl-5-[(2R,4S)-4-[4-[2-fluoro-4-(trifluoro-methyl)phenyl]-6,7-dimethyl-pteridin-2-yl]tetrahydropyran-2-yl]pyridin-2-one], the pEC50 under setting [1] is greater than 7.00.
As for `Cc1nc2nc([C@H]3CCO[C@@H](c4ccc(=O)n(C(F)F)c4)C3)nc(C34CC(C(F)(F)F)(C3)C4)c2nc1C` [Example 90], the pEC50 under setting [1] is greater than 7.00.
Regarding `CN(C)c1nc2nc(C3CCOC(c4ccc(=O)n(C)c4)C3)nc(-c3ccc(F)cc3F)c2s1` (stereo not drawn) [Example 15], under setting [1], the pEC50 is greater than 7.00.
Turning to `Cc1nc2nc([C@@H]3CCO[C@H](c4ccc(=O)n(C5CC5)c4)C3)nc(C34CC(C(F)(F)F)(C3)C4)c2nc1C` [Example 75, 1-cyclopropyl-5-[(2S,4R)-4-[6,7-dimethyl-4-[3-(trifluoromethyl)-1-bicyclo[1.1.1]-pentanyl]-pteridin-2-yl]tetrahydropyran-2-yl]pyridin-2-one], the pEC50 under setting [1] is greater than 7.00.
`Cc1nc2nc(N3C[C@@H](C)O[C@@H](c4ccc(=O)n(C)c4)C3)nc(-c3ccc(C(F)(F)F)cc3F)c2nc1C` [Example 7, 5-[(2S,6R)-4-[4-[2-fluoro-4-(trifluoromethyl)phenyl]-6,7-dimethyl-pteridin-2-yl]-6-methyl-morpholin-2-yl]-1-methyl-pyridin-2-one] showed a pEC50 greater than 7.00.
Consider `Cc1nc2c(C34CC(C(F)(F)F)(C3)C4)nc([C@H]3CCO[C@@H](c4ccc(=O)[nH]c4)C3)nc2c(=O)n1C` (racemic) [Example 216, 2,3-dimethyl-6-[rac-(2R,4S)-2-(6-oxo-1H-pyridin-3-yl)tetrahydropyran-4-yl]-8-[3-(trifluoromethyl)-1-bicyclo[1.1.1]pentanyl]pyrimido[5,4-d]pyrimidin-4-one], for which, under setting [1], the pEC50 is 6.30 to 7.00.
`Cc1nc2nc([C@H]3CCO[C@@H](c4ccc(=O)n(C(C)C)c4)C3)nc(C34CC(C(F)(F)F)(C3)C4)c2nc1C` [Example 77, 1-isopropyl-5-[(2R,4S)-4-[6,7-dimethyl-4-[3-(trifluoromethyl)-1-bicyclo[1.1.1]-pentanyl]pteridin-2-yl]tetrahydropyran-2-yl]pyridin-2-one]: the pEC50 under setting [1] is greater than 7.00.

The values above are taken from patent US20260356841A1, “HETEROCYCLIC PYRIDINONE COMPOUNDS AS TRIGGERING RECEPTOR EXPRESSED ON MYELOID CELLS 2 AGONISTS AND METHODS OF USE” (Vigil Neuroscience, Inc., priority 2023, published 2026).
